Assay results from the supplement of paper PMC10307832.

Experiments:
Test in all cases: relative viability (nuclei count vs DMSO), 5 days (fraction); higher = more cells survive
[1] = compound: CNC(=O)c1ccccc1Sc1ccc2c(/C=C/c3ccccn3)n[nH]c2c1 [Axitinib] + C[C@@H](Oc1cc(-c2cnn(C3CCNCC3)c2)cnc1N)c1c(Cl)ccc(F)c1Cl [Crizotinib] (partner 1 µM)
Summary of the method: (§1)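 After 5 days of treatment, lung cancer cells in 1536-well plates were fixed and stained in a single step (final 0.05% Triton X-100, 1% formaldehyde, 1 ug/ml Hoechst) and their nuclei counted on 4× images. Treatment had been applied by pin tool the day after seeding as one drug alone or as a fixed anchor-drug dose with five library-drug doses (not always all listed) in √10 steps. Relative viability is the nuclei count of treated wells divided by that of vehicle wells, and values are medians of duplicate plates.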

[2] = compound: CNC(=O)c1ccccc1Sc1ccc2c(/C=C/c3ccccn3)n[nH]c2c1 [Axitinib] + Cc1nc(NC(=O)N2CCC[C@H]2C(N)=O)sc1-c1ccnc(C(C)(C)C(F)(F)F)c1 [Alpelisib] (partner 2 µM)
Summary of the method: as §1

[3] = compound: Nc1nc(Nc2ccc3c(c2)CC[C@@H](N2CCCC2)CC3)nn1-c1cc2c(nn1)-c1ccccc1CCC2 [Bemcentinib] + Cc1nc(NC(=O)N2CCC[C@H]2C(N)=O)sc1-c1ccnc(C(C)(C)C(F)(F)F)c1 [Alpelisib] (partner 2 µM)
Summary of the method: as §1

[4] = compound: CC1=CC=C(C=C1)C(=O)CN2C3=C(CCCC3)SC2=N [Pifithrin_alpha] + Cc1nc(NC(=O)N2CCC[C@H]2C(N)=O)sc1-c1ccnc(C(C)(C)C(F)(F)F)c1 [Alpelisib] (partner 2 µM)
Summary of the method: as §1

Cell Line | relative viability ([1]; first compound 0.005 µM) | relative viability ([1]; first compound 0.01581 µM) | relative viability ([1]; first compound 0.05 µM) | relative viability ([1]; first compound 0.1581 µM) | relative viability ([1]; first compound 0.5 µM) | relative viability ([2]; first compound 0.005 µM) | relative viability ([2]; first compound 0.01581 µM) | relative viability ([2]; first compound 0.05 µM) | relative viability ([2]; first compound 0.1581 µM) | relative viability ([2]; first compound 0.5 µM) | relative viability ([3]; first compound 0.04 µM) | relative viability ([3]; first compound 0.1265 µM) | relative viability ([3]; first compound 0.4 µM) | relative viability ([3]; first compound 1.265 µM) | relative viability ([3]; first compound 4 µM) | relative viability ([4]; first compound 1 µM) | relative viability ([4]; first compound 3.162 µM) | relative viability ([4]; first compound 10 µM) | relative viability ([4]; first compound 31.62 µM) | relative viability ([4]; first compound 100 µM)
NCI-H1703 | 0.777 | 0.27 | 0.158 | 0.136 | 0.237 | 0.264 | 0.214 | 0.186 | 0.171 | 0.243 | 0.29 | 0.382 | 0.39 | 0.312 | 0.426 | 0.317 | 0.306 | 0.252 | 0.366 | 0.377
NCI-H1734 | 0.683 | 0.765 | 0.679 | 0.758 | 0.868 | 0.547 | 0.691 | 0.702 | 0.626 | 0.707 | 1.04 | 0.74 | 0.718 | 0.372 | 0.514 | 0.75 | 0.699 | 0.638 | 0.576 | 0.682
NCI-H1755 | 0.955 | 0.891 | 0.872 | 0.863 | 0.921 | 0.987 | 0.84 | 0.922 | 0.878 | 0.915 | 0.98 | 1.03 | 1.02 | 1.06 | 1.04 | 0.99 | 0.93 | 0.942 | 0.75 | 1.02
NCI-H1792 | 1.02 | 0.988 | 0.987 | 0.962 | 0.955 | 0.797 | 0.715 | 0.671 | 0.699 | 0.683 | 0.812 | 0.66 | 0.828 | 0.746 | 0.781 | 0.688 | 0.67 | 0.485 | 0.469 | 0.657
NCI-H1915 | 0.905 | 0.899 | 0.908 | 0.883 | 0.957 | 1.08 | 1.08 | 1.03 | 1.08 | 1.08 | 1.15 | 1.13 | 1.1 | 1.07 | 1.08 | 0.979 | 1.11 | 1.05 | – | 1.12
NCI-H1944 | 1.05 | 1.24 | 1.03 | 1.15 | 1.18 | 0.797 | 0.827 | 0.855 | 0.854 | 0.868 | 0.825 | 0.821 | 0.898 | 0.871 | 0.846 | 0.866 | 0.762 | 0.72 | – | 0.75
NCI-H1975 | 1.13 | 1.05 | 1.15 | 0.931 | 1.08 | 0.777 | 0.73 | 0.766 | 0.667 | 0.74 | 0.645 | 0.676 | 0.715 | 0.605 | 0.632 | 0.58 | 0.445 | 0.385 | 0.346 | 0.299
NCI-H1993 | 1.01 | 0.983 | 0.873 | 0.96 | 0.858 | 0.664 | 0.643 | 0.655 | 0.784 | 0.693 | 0.74 | 0.74 | 0.694 | 0.712 | 0.687 | – | 0.692 | 0.757 | 0.568 | 0.607
NCI-H2009 | 1.17 | 1.14 | 1.01 | 1.08 | 1.16 | 1.21 | 1.2 | 1.13 | 1.2 | 1.29 | 1.23 | 1.2 | 1.24 | 1.2 | 1.16 | 1.25 | 1.11 | 1.1 | 0.835 | 0.827
NCI-H2023 | 0.699 | 0.786 | 0.651 | 0.73 | 0.684 | 0.696 | 0.615 | 0.551 | 0.54 | 0.682 | 0.678 | 0.602 | 0.72 | 0.528 | 0.587 | 0.589 | 0.396 | 0.454 | 0.289 | 0.367
NCI-H2085 | 0.799 | 0.902 | 0.794 | 0.718 | 0.874 | 1.05 | 0.85 | 0.979 | 0.866 | 0.947 | 0.905 | 1.08 | 1.02 | 0.983 | 0.967 | 0.907 | 0.972 | 0.849 | 0.706 | 0.808
NCI-H2087 | 0.986 | 0.912 | 0.914 | 0.767 | 0.825 | 1.18 | 1.04 | 0.993 | 1.07 | 1.22 | 0.886 | 1.43 | 1.09 | 0.949 | 1.13 | 1.05 | 1.04 | 0.862 | 0.671 | 0.884
NCI-H2126 | 1.08 | 0.998 | 0.928 | 0.97 | 1.02 | 0.724 | 0.795 | 0.745 | 0.707 | 0.697 | 0.799 | 0.772 | 0.669 | 0.768 | 0.786 | 0.714 | 0.714 | 0.685 | 0.623 | 0.655
NCI-H2170 | 1.2 | 1.18 | 1.27 | 1.1 | 1.35 | 0.849 | 0.787 | 0.817 | 0.892 | 1.03 | 0.844 | 0.766 | 0.842 | 1.01 | 0.882 | 0.799 | 0.821 | 0.756 | 0.537 | 0.744
NCI-H2228 | 0.443 | 0.473 | 0.384 | 0.612 | 0.438 | 0.884 | 0.699 | 0.798 | 0.677 | 0.964 | – | 0.636 | 0.881 | 0.809 | 0.959 | 0.697 | 0.613 | 0.566 | 0.531 | 0.465
NCI-H2347 | 0.644 | 1.04 | 0.739 | 0.743 | 0.85 | 1.12 | 1.17 | 1.05 | 1.01 | 1.01 | 1.14 | 1.08 | 1.07 | 1.1 | 0.974 | 0.952 | 0.993 | 0.991 | 0.682 | 1.1
